According to PubChem BioAssay (NCI):
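Results reflect a 48-hour exposure of cells in 96-well plates to compound at five concentrations. Definition used: TGI = concentration required for complete inhibition of growth.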

Experiments:
Experiment in all cases: DTP human tumour cell line panel, 48 h
786-0 renal = test system: 786-0 renal
A498 renal = test system: A498 renal
A549 NSCLC = test system: A549 NSCLC
ACHN renal = test system: ACHN renal
BT-549 breast = test system: BT-549 breast
CAKI-1 renal = test system: CAKI-1 renal
CCRF-CEM leukemia = test system: CCRF-CEM leukemia
COLO 205 colon = test system: COLO 205 colon
DU-145 prostate = test system: DU-145 prostate
EKVX NSCLC = test system: EKVX NSCLC
HCT-116 colon = test system: HCT-116 colon
HCT-15 colon = test system: HCT-15 colon
HL-60(TB) leukemia = test system: HL-60(TB) leukemia
HOP-62 NSCLC = test system: HOP-62 NSCLC
HOP-92 NSCLC = test system: HOP-92 NSCLC
HS 578T breast = test system: HS 578T breast
HT29 colon = test system: HT29 colon
IGROV1 ovarian = test system: IGROV1 ovarian
K-562 leukemia = test system: K-562 leukemia
KM12 colon = test system: KM12 colon
LOX IMVI melanoma = test system: LOX IMVI melanoma
M14 melanoma = test system: M14 melanoma
MALME-3M melanoma = test system: MALME-3M melanoma
MCF7 breast = test system: MCF7 breast
MDA-MB-231 breast = test system: MDA-MB-231 breast
MDA-MB-435 = test system: MDA-MB-435
MDA-N = test system: MDA-N
MOLT-4 leukemia = test system: MOLT-4 leukemia
NCI-H226 lung = test system: NCI-H226 lung
NCI-H23 lung = test system: NCI-H23 lung
NCI-H460 lung = test system: NCI-H460 lung
NCI-H522 lung = test system: NCI-H522 lung
NCI/ADR-RES ovarian = test system: NCI/ADR-RES ovarian
OVCAR-3 ovarian = test system: OVCAR-3 ovarian
OVCAR-4 ovarian = test system: OVCAR-4 ovarian
OVCAR-5 ovarian = test system: OVCAR-5 ovarian
OVCAR-8 ovarian = test system: OVCAR-8 ovarian
PC-3 prostate = test system: PC-3 prostate
RPMI-8226 leukemia = test system: RPMI-8226 leukemia
RXF 393 renal = test system: RXF 393 renal
SF-268 CNS = test system: SF-268 CNS
SF-295 CNS = test system: SF-295 CNS
SF-539 CNS = test system: SF-539 CNS
SK-MEL-2 melanoma = test system: SK-MEL-2 melanoma
SK-MEL-28 melanoma = test system: SK-MEL-28 melanoma
SK-MEL-5 melanoma = test system: SK-MEL-5 melanoma
SK-OV-3 ovarian = test system: SK-OV-3 ovarian
SN12C renal = test system: SN12C renal
SNB-19 CNS = test system: SNB-19 CNS
SNB-75 CNS = test system: SNB-75 CNS
SR leukemia = test system: SR leukemia
SW-620 colon = test system: SW-620 colon
T-47D breast = test system: T-47D breast
TK-10 renal = test system: TK-10 renal
U251 CNS = test system: U251 CNS
UACC-257 melanoma = test system: UACC-257 melanoma
UACC-62 melanoma = test system: UACC-62 melanoma
UO-31 renal = test system: UO-31 renal

Measured: TGI

C1CN2CCNCCN(CCN1)CC2
> 100 µM: 786-0 renal | A498 renal | A549 NSCLC | ACHN renal | BT-549 breast | CAKI-1 renal | CCRF-CEM leukemia | COLO 205 colon | DU-145 prostate | EKVX NSCLC | HCT-116 colon | HCT-15 colon | HL-60(TB) leukemia | HOP-62 NSCLC | HOP-92 NSCLC | HS 578T breast | HT29 colon | IGROV1 ovarian | K-562 leukemia | KM12 colon | LOX IMVI melanoma | M14 melanoma | MALME-3M melanoma | MCF7 breast | MDA-MB-231 breast | MDA-MB-435 | MDA-N | MOLT-4 leukemia | NCI-H226 lung | NCI-H23 lung | NCI-H460 lung | NCI-H522 lung | NCI/ADR-RES ovarian | OVCAR-3 ovarian | OVCAR-4 ovarian | OVCAR-5 ovarian | OVCAR-8 ovarian | PC-3 prostate | RPMI-8226 leukemia | RXF 393 renal | SF-268 CNS | SF-295 CNS | SF-539 CNS | SK-MEL-2 melanoma | SK-MEL-28 melanoma | SK-MEL-5 melanoma | SK-OV-3 ovarian | SN12C renal | SNB-19 CNS | SNB-75 CNS | SR leukemia | SW-620 colon | T-47D breast | TK-10 renal | U251 CNS | UACC-257 melanoma | UACC-62 melanoma | UO-31 renal
